Laboratory results: patent US10640536B2, “Polymyxins, compositions, methods of making and methods of use” (XELLIA PHARMACEUTICALS APS, priority 2013, dated 2020)
Values after ≈ are worked out from the molar mass of the structure shown. Where two headings read alike, the source gives them in different places.

How the values were obtained:
Format in all cases: cell-based
[1] = system: Pseudomonas aeruginosa ATCC27853
Method: (§1) The deca sulfomethylated polymyxins were tested for antibacterial activity by determining the minimal inhibitory concentration (MIC) by use of the broth dilution method according to EUCAST. […] indicator organism were used e.g. Acinetobacter baumannii colistin-sensitive, Klebsiella pneumonia #3010, Pseudomonas aeruginosa ATCC27853, Escherichia coli ATCC25922 and Escherichia coli DSA443. The tests were performed at, Statens Serum Institut, Copenhagen, Denmark department for Microbiology and Infection Control.
(§2) The concentration range used was 0.125-128 μg/mL. Gentamicin was included as a positive quality control. Preparation of Gentamicin: 1000 μg/mL stock solution: 0.125 ml of a 40 mg/mL solution of Hexamicin+4.875 mL sterile water. 128 μg/mL: 0.640 mL of “1000 μg/mL stock solution”+4.36 mL Müeller-Hinton broth (MHB).
(§3) Preparation of compounds disclosed herein: 5 mg/ml stock solution: one vial of 5 mg was added 1.0 mL sterile water. 512 μg/mL solution: 0.205 mL of “5 mg/mL stock solution”+1.795 mL MHB
(§4) Preparation of inoculum: Fresh overnight colonies from 5% horse blood agar plates were suspended to a turbidity of 0.5 McFarland and further diluted in Müeller-Hinton broth to 1×10^6 CFU/ml. A total of 50 μL diluted bacterial suspension (Müeller Hinton BBL II-broth, SSI) was added to wells containing 50 μL of two fold compounds described herein or gentamicin dilutions. All compounds were tested in triplicate. The plates were incubated at 35° C., 16-20 h.

[2] = system: Escherichia coli ATCC25922
Method: as §1, §2, §3, §4

[3] = system: Acinetobacter baumannii colistin-sensitive
Method: as §1, §2, §3, §4

[4] = system: Klebsiella pneumonia #3010
Method: as §1, §2, §3, §4

Escherichia coli DSA443 = assay: MIC by broth dilution method according to EUCAST; details: Table 3, 35° C., 16-20 h
Method: as §1, §2, §3
as §4, with “All compounds were tested in triplicate. The plates were incubated at 35° C., 16-20 h.” left out

[5] = Table 3, broth dilution, 35° C., 16-20 h

Molecule | MIC P. aeruginosa ATCC 27853 ([1]; ATCC27853) [µg/mL] | MIC E. coli ATCC 25922 ([2]; ATCC25922) [µg/mL] | MIC A. baumannii ColistinS ([3]; colistin-sensitive) [µg/mL] | MIC K. pneumonia #3010 [4] [µg/mL] | other results
CC[C@H](C)CCCCC(=O)N[C@@H](CCN(CS(=O)(=O)O)CS(=O)(=O)O)C(=O)N[C@H](C(=O)N[C@@H](CCN)C(=O)N[C@H]1CCNC(=O)[C@H]([C@@H](C)O)NC(=O)[C@H](CCN(CS(=O)(=O)O)CS(=O)(=O)O)NC(=O)[C@H](CCN)NC(=O)[C@H](CC(C)C)NC(=O)[C@@H](CC(C)C)NC(=O)[C@H](CCN(CS(=O)(=O)O)CS(=O)(=O)O)NC1=O)[C@@H](C)O [PE1-(SM)6^1,5, 9, Tri (Nγ-Bis-Sulfomethyl) DAB1,5,9 Polymyxin E1] | 8 (≈ 4.61 µM) | 8 (≈ 4.61 µM) |  |  | 
Gentamicin [reference compound] |  |  |  |  | MIC P. aeruginosa ATCC 27853 [1, 5]: 1 µg/mL; MIC of positive control against quality control limit ([1]; limit 0.5-2 μg/mL for P. aeruginosa ATCC27853): within the limit; MIC A. baumannii ColistinS [3, 5]: >32 µg/mL; MIC E. coli ATCC 25922 [2, 5]: 1 µg/mL; MIC of positive control against quality control limit ([2]; limit 0.25-1 μg/mL for E. coli ATCC 25922): within the limit; MIC K. pneumonia #3010 [4, 5]: 0.125 µg/mL; MIC E. coli DSA 443 (Escherichia coli DSA443): >32 µg/mL
CC(C)CCCCC(=O)N[C@@H](CCN(CS(=O)(=O)O)CS(=O)(=O)O)C(=O)N[C@H](C(=O)N[C@@H](CCN(CS(=O)(=O)O)CS(=O)(=O)O)C(=O)N[C@H]1CCNC(=O)[C@H]([C@@H](C)O)NC(=O)[C@H](CCN(CS(=O)(=O)O)CS(=O)(=O)O)NC(=O)[C@H](CCN(CS(=O)(=O)O)CS(=O)(=O)O)NC(=O)[C@H](CC(C)C)NC(=O)[C@@H](CC(C)C)NC(=O)[C@H](CCN(CS(=O)(=O)O)CS(=O)(=O)O)NC1=O)[C@@H](C)O [Example 2, Penta (Nγ-Bis-Sulfomethyl) DAB1,3,5,8,9 Polymyxin E2] | 8 (≈ 3.82 µM) | 8 (≈ 3.82 µM) | 4 (≈ 1.91 µM) | 16 (≈ 7.63 µM) | 
CC[C@H](C)CCCCC(=O)N[C@@H](CCN(CS(=O)(=O)O)CS(=O)(=O)O)C(=O)N[C@H](C(=O)N[C@@H](CCN)C(=O)N[C@H]1CCNC(=O)[C@H]([C@@H](C)O)NC(=O)[C@H](CCN(CS(=O)(=O)O)CS(=O)(=O)O)NC(=O)[C@H](CCN(CS(=O)(=O)O)CS(=O)(=O)O)NC(=O)[C@H](CC(C)C)NC(=O)[C@@H](CC(C)C)NC(=O)[C@H](CCN(CS(=O)(=O)O)CS(=O)(=O)O)NC1=O)[C@@H](C)O [PE1-(SM)8^1,5,8, 9, Tetra (Nγ-Bis-Sulfomethyl) DAB1,5,8,9 Polymyxin E1] | 8 (≈ 4.16 µM) | 8 (≈ 4.16 µM) |  |  | 
CC[C@H](C)CCCCC(=O)N[C@@H](CCN(CS(=O)(=O)O)CS(=O)(=O)O)C(=O)N[C@H](C(=O)N[C@@H](CCN(CS(=O)(=O)O)CS(=O)(=O)O)C(=O)N[C@H]1CCNC(=O)[C@H]([C@@H](C)O)NC(=O)[C@H](CCN(CS(=O)(=O)O)CS(=O)(=O)O)NC(=O)[C@H](CCN(CS(=O)(=O)O)CS(=O)(=O)O)NC(=O)[C@H](CC(C)C)NC(=O)[C@@H](CC(C)C)NC(=O)[C@H](CCN(CS(=O)(=O)O)CS(=O)(=O)O)NC1=O)[C@@H](C)O [Example 1, Penta (Nγ-Bis-Sulfomethyl) DAB1,3,5,8,9 Polymyxin E1] | 8 (≈ 3.79 µM) | 8 (≈ 3.79 µM) | 4 (≈ 1.9 µM) | 16 (≈ 7.58 µM) | 
CC[C@H](C)CCCCC(=O)N[C@@H](CCN(CS(=O)(=O)O)CS(=O)(=O)O)C(=O)N[C@H](C(=O)N[C@@H](CCN(CS(=O)(=O)O)CS(=O)(=O)O)C(=O)N[C@H]1CCNC(=O)[C@H]([C@@H](C)O)NC(=O)[C@H](CCN(CS(=O)(=O)O)CS(=O)(=O)O)NC(=O)[C@H](CCN(CS(=O)(=O)O)CS(=O)(=O)O)NC(=O)[C@H]([C@@H](C)CC)NC(=O)[C@@H](CC(C)C)NC(=O)[C@H](CCN(CS(=O)(=O)O)CS(=O)(=O)O)NC1=O)[C@@H](C)O [Example 3, Penta (Nγ-Bis-Sulfomethyl) DAB1,3,5,8,9 Polymyxin E1-i] | 8 (≈ 3.79 µM) | 8 (≈ 3.79 µM) | 4 (≈ 1.9 µM) | 16 (≈ 7.58 µM) | 
